The supplement of paper PMC10733146

Key:
Test in all cases: viability relative to DMSO control (fraction); higher = less drug effect (more viable cells)
Conditions in all cases: 48 h
[1] = test system: primary AML patient cells (S006)
Method in brief: (§1)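 Cells were incubated for 48 h at 37 °C and 5% CO2 in RPMI-1640 with penicillin/streptomycin, L-glutamine and human serum, at 4 × 10^4 cells per well in 384-well plates with compounds pre-plated at five concentrations, one well each. These were primary mononuclear tumour cells, fresh or cryopreserved, Ficoll-isolated from blood or bone marrow or obtained from processed lymph node. Viability values are CellTiter-Glo luminescence relative to the median of 16 inner DMSO wells.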

[2] = test system: primary AML patient cells (S011)
Method in brief: as §1

[3] = test system: primary AML patient cells (S012)
Method in brief: as §1

[4] = test system: primary AML patient cells (S037)
Method in brief: as §1

[5] = test system: primary AML patient cells (S056)
Method in brief: as §1

[6] = test system: primary AML patient cells (S081)
Method in brief: as §1

[7] = test system: primary AML patient cells (S085)
Method in brief: as §1

[8] = test system: primary BL patient cells (S005)
Method in brief: as §1

[9] = test system: primary CLL patient cells (S031)
Method in brief: as §1

[10] = test system: primary CLL patient cells (S043)
Method in brief: as §1

[11] = test system: primary DLBCL patient cells (S049)
Method in brief: as §1

[12] = test system: primary DLBCL patient cells (S076)
Method in brief: as §1

[13] = test system: primary MCL patient cells (S041)
Method in brief: as §1

[14] = test system: primary MCL patient cells (S063)
Method in brief: as §1

[15] = test system: primary MCL patient cells (S068)
Method in brief: as §1

[16] = test system: primary T-NHL patient cells (S058)
Method in brief: as §1

[17] = test system: primary T-PLL patient cells (S008)
Method in brief: as §1

COc1cccc2c1C(=O)c1c(O)c3c(c(O)c1C2=O)C[C@@](O)(C(=O)CO)C[C@@H]3O[C@H]1C[C@H](N)[C@H](O)[C@H](C)O1 [Doxorubicin]
viability ([1]; 0.0016 µM): 1.02
viability ([1]; 0.008 µM): 1.05
viability ([1]; 0.04 µM): 0.788
viability ([1]; 0.2 µM): 0.32
viability ([1]; 1 µM): 0.0625
viability ([2]; 0.0016 µM): 1.05
viability ([2]; 0.008 µM): 1.04
viability ([2]; 0.04 µM): 0.973
viability ([2]; 0.2 µM): 0.507
viability ([2]; 1 µM): 0.0215
viability ([3]; 0.0016 µM): 1.04
viability ([3]; 0.008 µM): 1.04
viability ([3]; 0.04 µM): 0.88
viability ([3]; 0.2 µM): 0.896
viability ([3]; 1 µM): 0.0673
viability ([4]; 0.0016 µM): 1.06
viability ([4]; 0.008 µM): 1.05
viability ([4]; 0.04 µM): 0.979
viability ([4]; 0.2 µM): 0.737
viability ([4]; 1 µM): 0.447
viability ([5]; 0.0016 µM): 1.02
viability ([5]; 0.008 µM): 0.889
viability ([5]; 0.04 µM): 0.812
viability ([5]; 0.2 µM): 0.584
viability ([5]; 1 µM): 0.0807
viability ([6]; 0.0016 µM): 1.05
viability ([6]; 0.008 µM): 1.09
viability ([6]; 0.04 µM): 1.12
viability ([6]; 0.2 µM): 1.18
viability ([6]; 1 µM): 0.0358
viability ([7]; 0.0016 µM): 0.94
viability ([7]; 0.008 µM): 1.09
viability ([7]; 0.04 µM): 0.834
viability ([7]; 0.2 µM): 0.278
viability ([7]; 1 µM): 0.0284
viability ([8]; 0.0016 µM): 1.03
viability ([8]; 0.008 µM): 1.03
viability ([8]; 0.04 µM): 0.968
viability ([8]; 0.2 µM): 0.875
viability ([8]; 1 µM): 0.838
viability ([9]; 0.0016 µM): 1.14
viability ([9]; 0.008 µM): 1.02
viability ([9]; 0.04 µM): 0.534
viability ([9]; 0.2 µM): 0.0601
viability ([9]; 1 µM): 0.0158
viability ([10]; 0.0016 µM): 1.03
viability ([10]; 0.008 µM): 0.956
viability ([10]; 0.04 µM): 0.97
viability ([10]; 0.2 µM): 0.615
viability ([10]; 1 µM): 0.0447
viability ([11]; 0.0016 µM): 1.14
viability ([11]; 0.008 µM): 1
viability ([11]; 0.04 µM): 0.827
viability ([11]; 0.2 µM): 0.3
viability ([11]; 1 µM): 0.0345
viability ([12]; 0.0016 µM): 1.05
viability ([12]; 0.008 µM): 1.1
viability ([12]; 0.04 µM): 0.822
viability ([12]; 0.2 µM): 0.453
viability ([12]; 1 µM): 0.034
viability ([13]; 0.0016 µM): 0.994
viability ([13]; 0.008 µM): 1
viability ([13]; 0.04 µM): 0.942
viability ([13]; 0.2 µM): 0.488
viability ([13]; 1 µM): 0.0259
viability ([14]; 0.0016 µM): 1.01
viability ([14]; 0.008 µM): 0.98
viability ([14]; 0.04 µM): 0.997
viability ([14]; 0.2 µM): 0.735
viability ([14]; 1 µM): 0.0566
viability ([15]; 0.0016 µM): 0.995
viability ([15]; 0.008 µM): 0.978
viability ([15]; 0.04 µM): 0.761
viability ([15]; 0.2 µM): 0.307
viability ([15]; 1 µM): 0.0522
viability ([16]; 0.0016 µM): 1.03
viability ([16]; 0.008 µM): 0.96
viability ([16]; 0.04 µM): 0.823
viability ([16]; 0.2 µM): 0.525
viability ([16]; 1 µM): 0.145
viability ([17]; 0.0016 µM): 1.04
viability ([17]; 0.008 µM): 1.15
viability ([17]; 0.04 µM): 0.972
viability ([17]; 0.2 µM): 0.958
viability ([17]; 1 µM): 0.607

CCc1nc(C(N)=O)c(Nc2ccc(N3CCC(N4CCN(C)CC4)CC3)c(OC)c2)nc1NC1CCOCC1 [Gilteritinib]
viability ([1]; 0.024 µM): 0.393
viability ([1]; 0.12 µM): 0.381
viability ([1]; 0.6 µM): 0.382
viability ([1]; 3 µM): 0.729
viability ([1]; 15 µM): 0.563
viability ([2]; 0.024 µM): 0.834
viability ([2]; 0.12 µM): 0.755
viability ([2]; 0.6 µM): 0.617
viability ([2]; 3 µM): 0.841
viability ([2]; 15 µM): 0.796
viability ([3]; 0.024 µM): 0.956
viability ([3]; 0.12 µM): 0.97
viability ([3]; 0.6 µM): 1
viability ([3]; 3 µM): 0.972
viability ([3]; 15 µM): 0.928
viability ([4]; 0.024 µM): 1.06
viability ([4]; 0.12 µM): 1.02
viability ([4]; 0.6 µM): 0.875
viability ([4]; 3 µM): 0.9
viability ([4]; 15 µM): 0.738
viability ([5]; 0.024 µM): 0.404
viability ([5]; 0.12 µM): 0.385
viability ([5]; 0.6 µM): 0.339
viability ([5]; 3 µM): 0.497
viability ([5]; 15 µM): 0.644
viability ([6]; 0.024 µM): 0.968
viability ([6]; 0.12 µM): 0.969
viability ([6]; 0.6 µM): 0.947
viability ([6]; 3 µM): 0.708
viability ([6]; 15 µM): 0.599
viability ([7]; 0.024 µM): 1.02
viability ([7]; 0.12 µM): 0.98
viability ([7]; 0.6 µM): 0.741
viability ([7]; 3 µM): 0.781
viability ([7]; 15 µM): 0.756
viability ([8]; 0.024 µM): 0.957
viability ([8]; 0.12 µM): 0.96
viability ([8]; 0.6 µM): 0.739
viability ([8]; 3 µM): 0.667
viability ([8]; 15 µM): 0.536
viability ([9]; 0.024 µM): 1.13
viability ([9]; 0.12 µM): 1
viability ([9]; 0.6 µM): 0.785
viability ([9]; 3 µM): 0.791
viability ([9]; 15 µM): 0.188
viability ([10]; 0.024 µM): 1.04
viability ([10]; 0.12 µM): 1.01
viability ([10]; 0.6 µM): 0.7
viability ([10]; 3 µM): 0.519
viability ([10]; 15 µM): 0.393
viability ([13]; 0.024 µM): 0.934
viability ([13]; 0.12 µM): 0.882
viability ([13]; 0.6 µM): 0.705
viability ([13]; 3 µM): 0.647
viability ([13]; 15 µM): 0.406
viability ([14]; 0.024 µM): 1.11
viability ([14]; 0.12 µM): 1.13
viability ([14]; 0.6 µM): 0.706
viability ([14]; 3 µM): 0.42
viability ([14]; 15 µM): 0.209
viability ([15]; 0.024 µM): 1.63
viability ([15]; 0.12 µM): 2
viability ([15]; 0.6 µM): 1.89
viability ([15]; 3 µM): 1.27
viability ([15]; 15 µM): 0.689
viability ([17]; 0.024 µM): 0.952
viability ([17]; 0.12 µM): 0.909
viability ([17]; 0.6 µM): 0.886
viability ([17]; 3 µM): 0.787
viability ([17]; 15 µM): 0.935

CNC(=O)c1cc(Oc2ccc(NC(=O)Nc3ccc(Cl)c(C(F)(F)F)c3)cc2)ccn1 [Sorafenib]
viability ([1]; 0.024 µM): 0.709
viability ([1]; 0.12 µM): 0.508
viability ([1]; 0.6 µM): 0.413
viability ([1]; 3 µM): 0.423
viability ([1]; 15 µM): 0.378
viability ([2]; 0.024 µM): 0.966
viability ([2]; 0.12 µM): 1.02
viability ([2]; 0.6 µM): 0.972
viability ([2]; 3 µM): 0.875
viability ([2]; 15 µM): 0.715
viability ([3]; 0.024 µM): 0.958
viability ([3]; 0.12 µM): 0.991
viability ([3]; 0.6 µM): 1.05
viability ([3]; 3 µM): 1.01
viability ([3]; 15 µM): 1.09
viability ([4]; 0.024 µM): 0.961
viability ([4]; 0.12 µM): 1.06
viability ([4]; 0.6 µM): 1.05
viability ([4]; 3 µM): 1.05
viability ([4]; 15 µM): 1.09
viability ([5]; 0.024 µM): 0.642
viability ([5]; 0.12 µM): 0.488
viability ([5]; 0.6 µM): 0.443
viability ([5]; 3 µM): 0.453
viability ([5]; 15 µM): 0.374
viability ([6]; 0.024 µM): 0.918
viability ([6]; 0.12 µM): 0.958
viability ([6]; 0.6 µM): 1.03
viability ([6]; 3 µM): 0.99
viability ([6]; 15 µM): 1.06
viability ([7]; 0.024 µM): 1.09
viability ([7]; 0.12 µM): 1.06
viability ([7]; 0.6 µM): 0.916
viability ([7]; 3 µM): 1.12
viability ([7]; 15 µM): 1.03
viability ([8]; 0.024 µM): 0.839
viability ([8]; 0.12 µM): 0.905
viability ([8]; 0.6 µM): 0.92
viability ([8]; 3 µM): 0.957
viability ([8]; 15 µM): 0.885
viability ([9]; 0.024 µM): 1.01
viability ([9]; 0.12 µM): 1.02
viability ([9]; 0.6 µM): 1.13
viability ([9]; 3 µM): 1.02
viability ([9]; 15 µM): 1.04
viability ([10]; 0.024 µM): 0.938
viability ([10]; 0.12 µM): 1.05
viability ([10]; 0.6 µM): 0.94
viability ([10]; 3 µM): 1.08
viability ([10]; 15 µM): 0.858
viability ([13]; 0.024 µM): 0.981
viability ([13]; 0.12 µM): 1.01
viability ([13]; 0.6 µM): 1.04
viability ([13]; 3 µM): 1.05
viability ([13]; 15 µM): 0.95
viability ([14]; 0.024 µM): 0.98
viability ([14]; 0.12 µM): 1.02
viability ([14]; 0.6 µM): 0.973
viability ([14]; 3 µM): 1.06
viability ([14]; 15 µM): 1.02
viability ([15]; 0.024 µM): 0.919
viability ([15]; 0.12 µM): 1.03
viability ([15]; 0.6 µM): 1.03
viability ([15]; 3 µM): 1.22
viability ([15]; 15 µM): 1.66
viability ([17]; 0.024 µM): 0.955
viability ([17]; 0.12 µM): 0.997
viability ([17]; 0.6 µM): 1.02
viability ([17]; 3 µM): 0.973
viability ([17]; 15 µM): 0.948
